Experimental data as given in patent US20070225301A1, “TREATMENT OF ACNE AND OTHER DISEASES” (Astion Inflammation ApS, priority 2006, published 2007).
Counter-ions that a name gives are not always drawn.

Assays:
acne vulgaris = assay: Case with treatment of acne vulgaris; type: in vivo, human; conditions: person; for Reddened inflamed area surrounding the lesion: topical treatment of acne vulgaris
Description: A person was suffering from acne vulgaris characterised by comedones and some inflammatory lesions. They had previously regularly used a 5% benzoyl peroxide cream to treat the condition. During a flare up of the condition they applied a 5.0% aqueous solution of Pemirolast (potassium salt) once daily for four weeks to the areas affected. […] The treatment was followed and assessed by a physician.

IL-1α = assay: Cytokine production, LPS induced human PBMC; type: cell-based; conditions: stated in words only, no value
Method: The inhibition of Pemirolast on cytokine production was determined using the assay “LPS induced human PBMC”.

PPAR-γ = target: T1, PPAR-γ (Homo sapiens, UniProt P37231); assay: Gal-4-PPAR luciferase reporter assay in HEK 293-T (Indigo Biosciences); type: cell-based; conditions: % inhibition 50, 14 hours treatment, read-out: Concentration of Pemirolast giving 50 % inhibition of PPAR-γ
T1 sequence (P37231 238-505 limits assumed): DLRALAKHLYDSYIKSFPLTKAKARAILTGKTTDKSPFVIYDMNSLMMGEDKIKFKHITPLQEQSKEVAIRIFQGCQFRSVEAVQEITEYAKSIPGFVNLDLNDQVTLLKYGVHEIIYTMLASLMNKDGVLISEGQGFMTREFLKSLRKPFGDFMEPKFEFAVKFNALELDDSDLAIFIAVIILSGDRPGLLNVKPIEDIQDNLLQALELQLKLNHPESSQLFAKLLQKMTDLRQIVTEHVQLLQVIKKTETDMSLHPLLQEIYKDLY
Method: (§1) The inhibitory effect of Pemirolast on PPAR was determined by Indigo Biosciences. The following assay procedure was used: Compounds were diluted in DMSO to a final concentration of […] and serial dilutions prepared. The cell line HEK 293-T was transiently transfected with Gal-4-human PPARα, γ, Gal-4-luciferase and pRL (renilla, to correct for efficiency). The cells were treated with Pemirolast or with positive controls (ciprofibrate, or rosiglitazone) for 14 hours. The cells were lysed and luciferase and renilla activity were determined.

PPAR-α = target: T2, PPAR-α (Homo sapiens, UniProt Q07869); assay: as above; type: cell-based; conditions: % inhibition 50, 14 hours treatment, read-out: Concentration of Pemirolast giving 50 % inhibition of PPAR-α
T2 sequence (Q07869 200-468 limits assumed): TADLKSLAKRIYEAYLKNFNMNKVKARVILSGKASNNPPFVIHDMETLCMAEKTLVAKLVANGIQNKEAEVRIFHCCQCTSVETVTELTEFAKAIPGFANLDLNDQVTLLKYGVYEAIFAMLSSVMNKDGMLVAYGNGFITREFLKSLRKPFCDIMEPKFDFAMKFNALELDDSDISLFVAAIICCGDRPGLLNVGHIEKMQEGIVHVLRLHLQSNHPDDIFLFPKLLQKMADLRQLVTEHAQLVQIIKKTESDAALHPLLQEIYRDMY
Method: as §1

[1] = test system: arachidonic acid-induced ear inflammation; assay: Arachidonic acid-induced ear-inflammation test in mice; type: in vivo, female BALB/cA mice; conditions: intraperitoneal, 30 minutes before arachidonic acid; ear oedema one hour after
Method: The anti-inflammatory potential of Pemirolast can be tested in “arachidonic acid-induced ear-inflammation test in mice”, a commonly employed method for screening and evaluation of antiinflammatory drugs. Dexamethasone was employed as reference compound.
The study can be performed in female BALB/cA mice from M & B A/S, DK-8680 Ry. The test substances (various concentration of Pemirolast dissolved in aqueous solutions) and the reference compound are administered intraperitoneally in volumes of 20 ml per kg body weight 30 minutes before application of arachidonic acid to the ear. All groups are then treated with 20 μl arachidonic acid, 100 mg/ml in acetone, on the right ear.
One hour after the application of arachidonic acid the mice are sacrificed, the ears cut from the tip with a punch biopsy knife (8 mm diameter) and weighed. Mean weights and standard deviations are calculated. Relative ear oedema is assessed as the weight difference between right and left ear of each mouse expressed as percent of the left ear. Percent inhibition of the relative ear oedema compared with the vehicle treated groups is calculated for the test substance and reference compound treated groups. […]

[2] = 5.0% aqueous solution once daily for four weeks, topical

## Cc1cccn2c(=O)c(-c3nnn[nH]3)cnc12 [Pemirolast (potassium salt)]
Acne vulgaris; [2]
  Inflammatory acne lesions after treatment: completely recessed
  Scarring after treatment: without any noticeable scarring
Acne vulgaris
  Reddened inflamed area surrounding the lesion: also recessed

## Cc1cccn2c(=O)c(-c3nnn[nH]3)cnc12 [Pemirolast, 9-methyl-3-(1H-tetrazol-5-yl)-4H-pyrido[1,2-a]pyrimidin-4-one]
IL-1α
  Inhibition of IL-1α: inhibits
PPAR-γ
  IC50: 20 µM
PPAR-α
  IC50: 17 µM
[1]
  Effect on inflammatory reaction in the arachidonic acid treated ear: significantly prevented the inflammatory reaction

## O=C(OOC(=O)c1ccccc1)c1ccccc1 [benzoyl peroxide]
Acne vulgaris
  Reddened inflamed area surrounding the lesion: did not remove the reddened inflamed area
